Laboratory results taken from US7479471B2, “2-Amino-4-bicyclylamino-6H-1,3,5-triazines, processes for their preparation and their use as herbicides and plant growth regulators” (Bayer CropScience GmbH, priority 2002, dated 2009).

Key:
Assay type in all cases: in vivo
[1] = test system: monocotyledonous and dicotyledonous weed plants; assay: Pre-emergence herbicidal action (greenhouse pot test); conditions: pre-emergence method; application rate of 0.5 kg and less of active substance per hectare; Sinapis alba, Chrysanthemum segetum, Avena sativa, Stellaria media, Echinochloa crus-galli, Lolium multiflorum, Setaria spp., Abutilon theophrasti, Amaranthus retrofluxus, Panicum miliaceum
Text: Seeds or rhizome pieces of monocotyledonous and dicotyledonous weed plants are placed in sandy loam in plastic pots and covered with soil. The compounds according to the invention, which are formulated in the form of wettable powders or emulsion concentrates, are then applied to the surface of the soil cover as aqueous suspension or emulsion at various dosages with an application rate of 600 to 800 l of water/ha (converted).
After the treatment, the pots are placed into a greenhouse and kept under good growth conditions for the weeds. The plant or emergence damage is scored visually after the untreated controls have emerged. As shown by the test results, the compounds according to the invention have good herbicidal pre-emergence activity against a broad spectrum of weed grasses and broad-leaved weeds.

crop plants = assay: Crop plant tolerance (greenhouse, pre- and post-emergence); conditions: visual scoring four to five weeks after application
Procedure: In further greenhouse experiments, seeds of a relatively large number of crop plants and weeds are placed in sandy loam and covered with soil. Some of the pots are treated immediately as described in Section 1, while the remaining pots are placed in the greenhouse until the plants have developed two to three real leaves, and they are then sprayed with various dosages of substances of the formula (I) according to invention as described in Section 2. Four to five weeks after the application and standing time in the greenhouse, it is found by means of visual scoring that the compounds according to the invention leave dicotyledonous crops such as, for example, soybeans, cotton, oilseed rape, sugar beet and potatoes unharmed when applied pre- and post-emergence, even at high rates of active compound. In addition, some substances also leave graminaceous crops such as, for example, barley, wheat, rye, sorghum, corn or rice, unharmed.

[2] = test system: monocotyledonous and dicotyledonous weeds; assay: Post-emergence herbicidal action (greenhouse pot test); conditions: post-emergence method; application rate of 0.5 kg or less of active substance per hectare; scored after approx. 3 to 4 weeks; Sinapis alba, Echinochloa crus-galli, Lolium multiflorum, Chrysanthemum segetum, Setaria spp., Abutilon theophrasti, Amaranthus retroflexus, Panicum miliaceum, Avena sativa
Procedure: Seeds or rhizone pieces of monocotyledonous and dicotyledonous weeds are placed in sandy loam in plastic pots, covered with soil and grown in the greenhouse under good growth conditions. Three weeks after sowing, the test plants are treated at the three-leaf stage. Various dosages of the compounds according to the invention, which are formulated as wettable powders or emulsion concentrates, are sprayed onto the green plant parts at an application rate of 600 to 800 l of water per ha (converted), and after the test plants have been left to stand in the greenhouse for approx. 3 to 4 weeks under optimum growth conditions, the effect of the preparations is scored visually by comparison with untreated controls. The compositions according to the invention also have good herbicidal post-emergence activity against a broad spectrum of economically important weed grasses and broad-leaved weeds.

[3] = test system: harmful plants which are typical for rice crops; assay: Action against harmful plants in rice (paddy rice conditions); conditions: applied to the paddy water; approximately three weeks after application; Cyperus monti, Echinochloa crus-galli, Eleocharis acicularis, Sagittaria pygmaea; further: test concentration or dose not given here
Procedure: Transplanted and seeded rice and typical rice weeds are grown in the greenhouse until they have reached the three-leaf stage (Echinochloa 1.5-leaves) under paddy rice conditions (flooding level of the water: 2-3 cm) in closed plastic pots. They are then treated with the compounds according to the invention. To this end, the formulated active substances are suspended, dissolved or emulsified in water and applied to the paddy water of the test plants at various dosages by application by pouring.
After the treatment has been carried out in this way, the test plants are placed into the greenhouse under optimum growth conditions and are kept in this way over the entire experimental period.

Cc1ccc2c(c1)C(Nc1ncnc(N)n1)C(C)(C)C2 (centres unmarked) [Example 292]
herbicidal action against harmful plants, scored visually [1]: very good herbicidal action
selectivity (crop plants versus weeds) (crop plants): in some cases high selectivity
herbicidal action against harmful plants, scored visually [2]: very good herbicidal action
herbicidal action against harmful plants typical for rice crops, scored visually [3]: very good herbicidal action

Cc1cc2c(cc1C)C(Nc1ncnc(N)n1)C(C)C2 (centres unmarked) [Example 293]
herbicidal action against harmful plants, scored visually [1]: very good herbicidal action
selectivity (crop plants versus weeds) (crop plants): in some cases high selectivity
herbicidal action against harmful plants, scored visually [2]: very good herbicidal action
herbicidal action against harmful plants typical for rice crops, scored visually [3]: very good herbicidal action
